Results on 9 compounds are retold here after US10828315B2 (Madrigal Pharmaceuticals, Inc., priority 2013, dated 2020).

Series [1] relates to Human H3122 NSCLC cells. In words: Cell viability assay (CellTiter-Glo) in H3122 cells (Example 4). In kind it is cell-based. The conditions noted are these: NCI-H3122. The method, then: Human H3122 NSCLC cells were obtained and grown in RPMI in the presence of fetal bovine serum (10%), 2 mM L-glutamine and antibiotics (100 IU/ml penicillin and 100 μg/ml streptomycin, Sigma Aldrich.) Cells were maintained at 37° C., 5% CO2 atmosphere.
Cell viability was measured using the CellTiter-Glo® assay (Promega). In brief, cells were plated in 96-well plates in triplicate at optimal seeding density (determined empirically) and incubated at 37° C., 5% CO2 atmosphere for 24 hr prior to the addition of drug or vehicle (0.3% DMSO) to the culture medium. At the end of the assay, CellTiter-Glo was added to the wells per manufacturer's recommendation, shaken for two minutes and incubated for 10 minutes at room temperature. Luminescence (0.1 sec) was measured with a Victor II microplate reader (Perkin Elmer) and the resulting data were used to calculate cell viability, normalized to vehicle control.
Cells as described above were treated with exemplary SDC-TRAPs and their viability determined as above as well. The following table illustrates the results.
Background: Cellular ATP, detected with luciferase, serves as a proxy for viable cell number.

The subject of series [2] is H 3211 NSLC cells. Description: IC50 of continuous and pulsed exposure (Examples 9 and 10). In kind it is cell-based.
Series [3] concerns HER2. Description: HER2 degradation in BT-474 cells (Example 3, Methods 1 and 2). In kind it is cell-based, human. An excerpt: This example illustrates how a HER2 degradation assay may be used as a test to determine and select Hsp90-targeting moieties suitable for use in SDC-TRAPs of the invention, and further illustrates the ability of SDC-TRAPs to target cells preferentially expressing Hsp90. Such a test may further be used to determine the Hsp90 binding ability of SDC-TRAPs of the invention, as well as through competitive binding assays and cell-based Hsp90 client protein degradation assays known in the art.
After treatment, each cytoplasmic sample is prepared from 1×10^6 cells by incubation of cell lysis buffer (#9803, Cell Signaling Technology) on ice for 10 minutes. The resulting supernatant used as the cytosol fractions is dissolved with sample buffer for SDS-PAGE and run on a SDS-PAGE gel, blotted onto a nitrocellulose membrane by using semi-dry transfer. Non-specific binding to nitrocellulose is blocked with 5% skim milk in TBS with 0.5% Tween at room temperature for 1 hour, then probed with anti-HER2/ErB2 mAb (rabbit IgG, #2242, Cell Signaling) and anti-Tubulin (T9026, Sigma) as housekeeping control protein. HRP-conjugated goat anti-rabbit IgG (H+L) and HRP-conjugated horse anti-mouse IgG (H+L) are used as secondary Ab (#7074#7076, Cell Signaling) and LumiGLO reagent, 20× Peroxide (#7003, Cell Signaling) is used for visualization. The Hsp90 client protein HER2 is degraded when cells are treated with Hsp90-targeting moieties or SDC-TRAPs of the invention.
BT-474 cells are plated in the interior 60 wells of a 96 well black clear bottom plate (20,000 cells/well) in DMEM medium, with DMEM media in the surrounding 36 wells, and incubated at 37° C. with 5% CO2 overnight. On the second day, concentration response curve source plates are produced (10 point, 3-fold dilution of compounds in DMSO) followed by a 1:30 dilution in an intermediate dilution plate containing DMEM. Compound is transferred from the intermediate plate to the cell plate at a dilution of 1:10. The cells are then incubated at 37° C. with 5% CO2 for 24 hours.
Cells are then fixed in 4% phosphate-buffered paraformaldehyde for 30 minutes at room temperature and then permeabilized by washing five times with 0.1% Triton X-100 in PBS for 5 minutes at room temperature on a shaker. […] Cells are washed five times with 0.1% Tween-20 in PBS for 5 minutes at room temperature on a shaker and incubated with fluorescently-labeled secondary antibody (LI-COR, #926-32211) diluted 1:1000 in blocking buffer, and DRAQ5 nuclear stain (Biostatus Limited, # DRAQ5) diluted 1:10,000, at room temperature on a shaker for 1 hour. Cells are washed 5 times with 0.1% Tween-20 in PBS for 5 minutes at room temperature on a shaker and imaged on a LI-COR Odyssey imaging station. The raw data is normalized to DRAQ5 and the HER2 EC50 is calculated using XLfit™.

Series [4] has as its system HER2. In words: HER2 degradation assay with BT-474 cell line (Example 12, FACS). In kind it is cell-based, human.
Series [5] is described as follows: Stability in cell culture media (Example 18).
Procedure: 98 μL of DMEM+10% FBS, +1% P/S, +1.5 g/L sodium bicarbonate cell culture media was mixed with 2 μL of DMSO and aliquotted into 96-well plates at 250 μL per 0, 1, 2, and 18 hour time point.
3×50 μL media samples in 96 were held in 96-well plates at −80° C. until the last time point was extracted. 200 μL of methanol containing IS was added and mixed by vortex at 1500 rpm for 1.5 minutes at room temperature. The samples were centrifuged at 4400 rpm for 10 minutes at 8° C.
Series [6] in a line: Artificial membrane permeability assay (PAMPA).
The nature of series [7]: Mouse plasma stability protocol, up to 1 h (Examples 16-18).
[8] abbreviates: read-out: IC50, 72h-continuous, 7.5 × 10^3 cells/well, three replicate columns.
[9] abbreviates: read-out: IC50, 1h-pulse/71h-compound free, 7.5 × 10^3 cells/well, two replicate columns.

Several values for one entry are separate records, joined by “and”; a condition that tells them apart may be missing. Equal values may be shown once. Read-outs that look alike come from different tables or passages of the source.

Regarding `CC(C)c1cc(-c2nnc(O)n2-c2ccc3c(ccn3CCOCCNC(=O)CCCC(=O)Nc3cccc4c3CN(C3CCC(=O)NC3=O)C4=O)c2)c(O)cc1O` (stereo not shown) [SDC-TRAP-0015, N1-(2-(2-(5-(3-(2,4-dihydroxy-5-isopropylphenyl)-5-hydroxy-4H-1,2,4-triazol-4-yl)-1H-indol-1-yl)ethoxy)ethyl)-N5-(2-(2,6-dioxopiperidin-3-yl)-1-oxoisoindolin-4-yl)glutaramide], the IC50 in series [1] worked out at 1270 nM; in series [2] (setting [8]), 796 nM.

With `CCc1c2c(nc3ccc(OC(=O)N(C)CCOCCn4ccc5cc(-n6c(O)nnc6-c6cc(C(C)C)c(O)cc6O)ccc54)cc13)-c1cc3c(c(=O)n1C2)COC(=O)C3(O)CC` (stereo not shown) [SDC-TRAP-0029, 4,11-diethyl-4-hydroxy-3,14-dioxo-3,4,12,14-tetrahydro-1H-pyrano[3′,4′:6,7]indolizino[1,2-b]quinolin-9-yl (2-(2-(5-(3-(2,4-dihydroxy-5-isopropylphenyl)-5-hydroxy-4H-1,2,4-triazol-4-yl)-1H-indol-1-yl)ethoxy)ethyl)(methyl)carbamate], the IC50 in series [3] is 1600 nM; in series [4] it was 1370 nM; in series [1] it was 125 nM; in series [2] (1 h, read-out: IC50, 1h-pulse/71h-compound free, 7.5 × 10^3 cells/well, two replicate columns), above 3000 nM; in series [2] (setting [9]) it was above 3000 nM. The “Media (5 μM) % Remaining 19 h (37° C.)” value in series [5] came out at 29%. In addition, the “Media (5 μM) % Remaining 1 h (37° C.)§” value in series [5] (data from single parent peak) stood at 43%. The “Media (5 μM) % Remaining 1 h (37° C.)*” value in series [5] (sum of both peaks) turned out to be 46%. In addition, the “Mass Retention” value in series [6] (same protocol, second table) was 84.0%. Besides, the “% Remaining (1 h)” value in series [7] (% Remaining of parent after 1 h incubation in mouse plasma at 37° C. (10 μM)) was determined as 47.0%. In addition, the “% Remaining (1 h, 37° C.)” value in series [7] (mouse plasma, 1 h, 37° C.) amounted to 47%. Moreover, in series [7] (mouse plasma, data from single parent peak), the “Mouse (10 μM) % Remaining 1 h (37° C.)§” value is on record as 44%. Also, the “Mouse (10 μM) % Remaining 1 h (37° C.)*” value in series [7] (mouse plasma, sum of both peaks) is given as 47%.

Regarding `CCc1c2c(nc3ccc(OCC(=O)N(C)CCn4ccc5cc(-n6c(O)nnc6-c6cc(C(C)C)c(O)cc6O)ccc54)cc13)-c1cc3c(c(=O)n1C2)COC(=O)C3(O)CC` (stereo not shown) [SDC-TRAP-0027, 2-((4,11-diethyl-4-hydroxy-3,14-dioxo-3,4,12,14-tetrahydro-1H-pyrano[3′,4′:6,7]indolizino[1,2-b]quinolin-9-yl)oxy)-N-(2-(5-(3-(2,4-dihydroxy-5-isopropylphenyl)-5-hydroxy-4H-1,2,4-triazol-4-yl)-1H-indol-1-yl)ethyl)-N-methylacetamide], the IC50 stood at 1350 nM in series [1] and 984 nM in series [2] (72 h, read-out: IC50, 72h-continuous, 7.5 × 10^3 cells/well, three replicate columns).

In series [1], `CC(C)c1cc(-c2nnc(O)n2-c2ccc3c(ccn3CCN(C)C(=O)CCCC(=O)Nc3cccc4c3CN(C3CCC(=O)NC3=O)C4=O)c2)c(O)cc1O` (stereo not shown) [SDC-TRAP-0018, N1-(2-(5-(3-(2,4-dihydroxy-5-isopropylphenyl)-5-hydroxy-4H-1,2,4-triazol-4-yl)-1H-indol-1-yl)ethyl)-N5-(2-(2,6-dioxopiperidin-3-yl)-1-oxoisoindolin-4-yl)-N1-methylglutaramide] returned an IC50 of 620 nM. For the same compound, the “Mass Retention” value in series [6] (incubation 5 h, first table) is listed as 14.7%.

Take `CCc1c2c(nc3ccc(O)cc13)-c1cc3c(c(=O)n1C2)COC(=O)C3(CC)OC(=O)CCCNC(=O)c1cc2cc(-n3c(O)nnc3-c3cc(C(C)C)c(O)cc3O)ccc2n1C` (stereo not shown) [SDC-TRAP-0024, 4,11-diethyl-9-hydroxy-3,14-dioxo-3,4,12,14-tetrahydro-1H-pyrano[3′,4′:6,7]indolizino[1,2-b]quinolin-4-yl 4-(5-(3-(2,4-dihydroxy-5-isopropylphenyl)-5-hydroxy-4H-1,2,4-triazol-4-yl)-1-methyl-1H-indole-2-carboxamido)butanoate]: the IC50 in series [3] is above 5000 nM; in series [1], 99 nM; in series [2] (setting [9]), 697 nM and 2210 nM; in series [2] (setting [8]), < 12 nM and 118 nM and 104 nM.

`CC(C)c1cc(-c2nnc(O)n2-c2ccc3c(ccn3CCN(C)C(=O)c3ccc(CCc4c[nH]c5nc(N)[nH]c(=O)c45)cc3)c2)c(O)cc1O` [SDC-TRAP-0019, 4-(2-(2-amino-4-oxo-4,7-dihydro-3H-pyrrolo[2,3-d]pyrimidin-5-yl)ethyl)-N-(2-(5-(3-(2,4-dihydroxy-5-isopropylphenyl)-5-hydroxy-4H-1,2,4-triazol-4-yl)-1H-indol-1-yl)ethyl)-N-methylbenzamide] yielded an IC50 in series [1] of 393 nM.

On to `CCc1c2c(nc3ccc(OCC(=O)NCCn4ccc5cc(-n6c(O)nnc6-c6cc(C(C)C)c(O)cc6O)ccc54)cc13)-c1cc3c(c(=O)n1C2)COC(=O)C3(O)CC` (stereo not shown) [SDC-TRAP-0023, 2-((4,11-diethyl-4-hydroxy-3,14-dioxo-3,4,12,14-tetrahydro-1H-pyrano[3′,4′:6,7]indolizino[1,2-b]quinolin-9-yl)oxy)-N-(2-(5-(3-(2,4-dihydroxy-5-isopropylphenyl)-5-hydroxy-4H-1,2,4-triazol-4-yl)-1H-indol-1-yl)ethyl)acetamide], for which the IC50 in series [1] was 137 nM; in series [2] (setting [8]) it was below 12 nM.

In the case of `CCc1c2c(nc3ccc(OC(=O)N(C)CCN(C)C(=O)c4cc5cc(-n6c(O)nnc6-c6cc(C(C)C)c(O)cc6O)ccc5n4C)cc13)-c1cc3c(c(=O)n1C2)COC(=O)C3(O)CC` (stereo not shown) [SDC-TRAP-0010], the IC50 in series [3] is above 5000 nM; in series [4] it was above 5000 nM; in series [1], 234 nM; in series [2] (setting [8]) it was 144 nM and 327 nM and 232 nM.

Turning to `CC(C)c1cc(-c2nnc(O)n2-c2ccc3c(ccn3CCN(C)C(=O)NCC(=O)Nc3cccc4c3CN(C3CCC(=O)NC3=O)C4=O)c2)c(O)cc1O` (stereo not shown) [SDC-TRAP-0021, 2-(3-(2-(5-(3-(2,4-dihydroxy-5-isopropylphenyl)-5-hydroxy-4H-1,2,4-triazol-4-yl)-1H-indol-1-yl)ethyl)-3-methylureido)-N-(2-(2,6-dioxopiperidin-3-yl)-1-oxoisoindolin-4-yl)acetamide], in series [1], the IC50 was determined as 717 nM.
